From article PMC4008261, “Rewiring of regenerated axons by combining treadmill training with semaphorin3A inhibition” (Molecular Brain, 2014)

Tests used:
Semaphorin = Semaphorin (Homo sapiens, UniProt Q14563); assay: Pharmacological profile: semaphorin inhibition; format: cell-based
Text: In our previous study, we used an osmotic mini-pump to deliver the semaphorin3A inhibitor SM-216289 [20]. However, in clinical practice, this type of invasive drug delivery method is not ideal. Therefore, we developed a novel DDS that utilizes a silicone matrix to continuously deliver SM-345431 (a newly developed semaphorin3A inhibitor) intrathecally. We evaluated the drug release profile of SM-345431 in this new silicone matrix preparation and the potency of SM-345431-mediated semaphorin3A inhibition in vitro (Figure 1). […] When chick embryonic DRG explants and semaphorin3A-expressing COS7 cell aggregates (semaphorin3A-COS) were co-cultured in a collagen gel, the neurites of the DRG explants grew away from the semaphorin3A-COS, as shown in Figure 1B. […] We also evaluated the selectivity of SM-345431 for semaphorin3A inhibition by examining the pharmacological profile of SM-345431 (Tables 1 and 2). […] The release of SM-345431 (0.1 mg/mg loading 10%) in vivo was calculated as 0.5-0.7 μg/day, and this dose was similar to the dose of the semaphorin3A inhibitor (SM-216289) that we administered using osmotic mini pumps in our previous study. […]

SCT adult rats = assay: Remyelination after SCT (MBP/GAP43 immunostaining, electron microscopy); format: in vivo, rat
Protocol: Rats were randomly divided into the following three experimental groups: 1) untrained + placebo, 2) untrained + SM-345431 and 3) trained + SM-345431. SCT was performed, and SM-345431 or placebo was administered at the lesion site via the newly developed DDS, which is described in detail below. Starting 1 week post-injury, treadmill training commenced with a BSS. Kinematic tests were performed monthly for 3 months after SCT using a rodent robotic device (Rodent robot 3000, Robomedica Inc.) that primarily assessed the performance of plantar stepping on a treadmill. Treadmill training was continued throughout the experimental period.
A total of 53 adult female Sprague-Dawley rats (200-250 g, 10-12 weeks old) were used in this study (3 rats died during the experimental period and were excluded from the statistical analysis). All procedures were approved by the experimental animal care committee of Keio University, School of Medicine and Murayama Medical Center (approval #12-8). All rats were anesthetized with an intraperitoneal injection of ketamine (100 mg/kg)/xylazine (10 mg/kg). The spinal cord at the level of the T10 lamina was exposed by T10 laminectomy, and the dorsal dura mater was opened. […] Kinematic data were recorded using similar procedures prior to re-transection surgery (on the same day) and on the day following re-transection surgery. […]

Chain of Semaphorin (Q14563 21-771): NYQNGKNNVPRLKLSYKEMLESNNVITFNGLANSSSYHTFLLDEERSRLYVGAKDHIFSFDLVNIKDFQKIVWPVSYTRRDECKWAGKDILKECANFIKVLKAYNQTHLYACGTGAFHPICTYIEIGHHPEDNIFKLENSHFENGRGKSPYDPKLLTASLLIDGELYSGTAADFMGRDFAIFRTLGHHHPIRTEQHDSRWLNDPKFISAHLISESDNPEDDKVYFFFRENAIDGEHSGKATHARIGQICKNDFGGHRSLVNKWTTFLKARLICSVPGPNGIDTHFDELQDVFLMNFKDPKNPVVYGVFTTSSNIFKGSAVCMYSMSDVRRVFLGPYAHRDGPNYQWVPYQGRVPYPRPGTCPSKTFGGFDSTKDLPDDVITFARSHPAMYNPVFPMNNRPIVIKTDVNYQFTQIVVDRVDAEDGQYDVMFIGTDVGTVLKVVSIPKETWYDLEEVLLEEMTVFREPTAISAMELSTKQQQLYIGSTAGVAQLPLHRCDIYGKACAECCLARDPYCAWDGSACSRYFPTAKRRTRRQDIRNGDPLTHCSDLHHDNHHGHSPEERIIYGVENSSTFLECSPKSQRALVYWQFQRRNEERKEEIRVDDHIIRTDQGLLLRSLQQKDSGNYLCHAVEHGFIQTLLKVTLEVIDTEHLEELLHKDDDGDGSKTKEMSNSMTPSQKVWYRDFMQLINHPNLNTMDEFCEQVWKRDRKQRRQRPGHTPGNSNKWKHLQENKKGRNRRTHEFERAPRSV

For `CC(=O)c1cc2c(=O)c3c(C(=O)O)c(O)c(O)cc3oc2c(C(C)=O)c1-c1coc2cc(O)c(O)c(C(=O)O)c2c1=O` [SM-345431, Vinaxanthone], the IC50 (Semaphorin) was 0.1 to 0.2 µM, the “semaphorin3A inhibitory activity compared with SM-216289” value (Semaphorin) was “approximately the same semaphorin3A inhibitory activity as SM-216289” and the “remyelination of axons (myelinated GAP43-positive axons at the lesion site)” value (SCT adult rats; SM-345431 alone, 12 weeks post-injury) was “significantly enhanced the remyelination of axons”. The “remyelination of axons (myelinated GAP43-positive axons at the lesion site)” value (SCT adult rats; SM-345431 plus treadmill training, compared with SM-345431 alone) was “additional remyelination was not observed”.
